Tests used:
Experiment in all cases: relative viability (nuclei count vs DMSO), 5 days (fraction); higher = more cells survive
[1] = compound: COC1=CC=C(C=C1)CN2C=CC3=C2C=C(C=C3)C(=O)NO + CCNC(=O)c1noc(-c2cc(C(C)C)c(O)cc2O)c1-c1ccc(CN2CCOCC2)cc1 [Luminespib] (partner 0.01 µM)
Outline: (§1)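 For relative viability, nuclei counts in treated wells were divided by those in vehicle wells. Lung cancer cell lines had been pin-tool dosed in 1536-well plates the day after seeding and cultured for 5 days, then fixed and stained in one step (final 0.05% Triton X-100, 1% formaldehyde, 1 ug/ml Hoechst) and imaged at 4×. Doses were one drug alone or a fixed anchor-drug dose plus five library-drug doses (not always all listed) in √10 steps, and values are duplicate-plate medians.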

Veliparib + Trametinib = compound: C[C@]1(c2nc3c(C(N)=O)cccc3[nH]2)CCCN1 [Veliparib] + CC(=O)Nc1cccc(-n2c(=O)n(C3CC3)c(=O)c3c(Nc4ccc(I)cc4F)n(C)c(=O)c(C)c32)c1 [Trametinib] (partner 0.02 µM)
Outline: as §1

Veliparib + Linsitinib = compound: C[C@]1(c2nc3c(C(N)=O)cccc3[nH]2)CCCN1 [Veliparib] + C[C@]1(O)C[C@@H](c2nc(-c3ccc4ccc(-c5ccccc5)nc4c3)c3c(N)nccn32)C1 [Linsitinib] (partner 1 µM)
Outline: as §1

Veliparib + Decitabine = compound: C[C@]1(c2nc3c(C(N)=O)cccc3[nH]2)CCCN1 [Veliparib] + Nc1ncn([C@H]2C[C@H](O)[C@@H](CO)O2)c(=O)n1 [Decitabine] (partner 2 µM)
Outline: as §1

Cell Line | relative viability ([1]; first compound 0.253 µM) | relative viability ([1]; first compound 0.8 µM) | relative viability ([1]; first compound 2.53 µM) | relative viability ([1]; first compound 8 µM) | relative viability (Veliparib + Trametinib; first compound 0.02 µM) | relative viability (Veliparib + Trametinib; first compound 0.06325 µM) | relative viability (Veliparib + Trametinib; first compound 0.2 µM) | relative viability (Veliparib + Trametinib; first compound 0.6325 µM) | relative viability (Veliparib + Trametinib; first compound 2 µM) | relative viability (Veliparib + Linsitinib; first compound 0.02 µM) | relative viability (Veliparib + Linsitinib; first compound 0.06325 µM) | relative viability (Veliparib + Linsitinib; first compound 0.2 µM) | relative viability (Veliparib + Linsitinib; first compound 0.6325 µM) | relative viability (Veliparib + Linsitinib; first compound 2 µM) | relative viability (Veliparib + Decitabine; first compound 0.02 µM) | relative viability (Veliparib + Decitabine; first compound 0.06325 µM) | relative viability (Veliparib + Decitabine; first compound 0.2 µM) | relative viability (Veliparib + Decitabine; first compound 0.6325 µM) | relative viability (Veliparib + Decitabine; first compound 2 µM) | relative viability ([1]; first compound 0.08 µM)
NCI-H838 | 0.315 | 0.364 | 0.354 | 0.381 | 0.566 | 0.501 | 0.54 | 0.524 | 0.521 | 1.07 | 0.981 | 1.03 | 0.888 | 1.1 | 0.409 | 0.453 | 0.408 | 0.32 | 0.426 | 
NCI-H1355 | 0.834 | 0.776 | 0.7 | 0.522 | 0.368 | 0.282 | 0.438 | 0.422 | 0.447 |  | 0.746 | 0.832 | 0.76 | 0.849 | 0.388 | 0.29 | 0.371 | 0.328 | 0.325 | 
NCI-H1395 | 0.659 | 0.628 | 0.708 | 0.604 | 0.995 | 0.96 | 0.924 | 0.899 | 0.857 |  | 0.987 | 0.853 | 0.745 | 0.716 | 0.704 | 0.626 | 0.686 | 0.606 | 0.652 | 0.662
NCI-H1437 | 1.13 | 1.09 | 1.18 | 1.13 | 0.502 | 0.527 | 0.514 | 0.502 | 0.497 | 1.01 | 1.04 | 1.02 | 1.03 | 1.08 | 0.606 | 0.526 | 0.464 | 0.533 | 0.497 | 1
NCI-H1651 | 0.885 | 1.02 | 0.816 | 0.655 | 0.844 | 0.836 | 0.785 | 0.77 | 0.8 | 0.854 | 1.01 | 0.984 | 0.82 | 0.805 | 0.549 | 0.43 | 0.348 | 0.358 | 0.32 | 0.927
NCI-H1666 | 1.07 | 1.01 | 0.987 | 1.15 | 0.84 | 0.861 | 0.782 | 0.754 | 0.926 | 0.93 | 0.557 | 0.865 | 0.671 | 0.838 | 0.716 | 0.596 | 0.764 | 0.645 | 0.701 | 0.911
NCI-H1734 | 0.219 | 0.218 | 0.181 | 0.184 |  | 0.613 | 0.792 | 0.631 | 0.72 | 0.925 | 0.85 | 0.917 | 0.805 | 0.928 |  | 0.374 | 0.389 | 0.33 | 0.35 | 
NCI-H1755 | 0.312 | 0.499 | 0.508 | 0.356 | 0.821 | 0.763 | 0.812 | 0.741 | 0.768 | 1 | 0.972 | 0.972 | 0.968 | 0.963 | 0.675 | 0.709 | 0.629 | 0.595 | 0.707 | 0.398
NCI-H1792 | 0.638 | 0.529 | 0.35 | 0.414 | 0.499 | 0.411 | 0.41 | 0.438 | 0.401 | 0.59 | 0.422 | 0.535 | 0.494 | 0.543 | 0.463 | 0.381 | 0.397 | 0.263 | 0.26 | 0.37
NCI-H1793 | 0.184 | 0.17 | 0.18 | 0.219 | 0.476 | 0.417 | 0.474 | 0.361 | 0.465 | 0.864 | 0.804 | 0.956 | 0.728 | 0.828 | 0.511 | 0.47 | 0.445 | 0.429 | 0.424 | 
NCI-H1915 | 0.812 | 0.885 | 0.84 | 0.768 | 0.309 | 0.289 | 0.302 | 0.292 | 0.291 | 1.07 | 1.07 | 1.02 | 0.954 | 0.995 | 0.23 | 0.243 | 0.267 | 0.242 | 0.266 | 0.646
NCI-H1944 | 0.788 | 0.791 | 0.748 | 0.728 | 0.432 | 0.398 | 0.418 | 0.418 | 0.405 | 1.21 | 1.17 | 1.06 | 1.19 | 1.12 | 0.408 | 0.398 | 0.353 | 0.41 | 0.407 | 
NCI-H1975 | 0.238 | 0.281 | 0.262 | 0.114 | 0.339 | 0.335 | 0.329 | 0.344 | 0.331 | 0.933 | 0.951 | 1.03 | 0.88 | 0.931 | 0.392 | 0.447 | 0.362 | 0.307 | 0.328 | 0.26
NCI-H1993 | 0.812 | 1.09 | 0.826 | 0.845 |  | 0.63 | 0.519 | 0.425 | 0.552 | 0.7 | 0.683 | 0.738 | 0.7 | 0.726 |  | 0.526 | 0.614 | 0.541 | 0.567 | 0.57
NCI-H2009 | 1.04 | 1 | 1.02 | 0.933 | 0.289 | 0.291 | 0.316 | 0.302 | 0.33 | 1.27 | 1.17 | 1.16 | 1.14 | 1.22 | 0.344 | 0.37 | 0.366 | 0.329 | 0.361 | 1.04
NCI-H2023 | 0.885 | 0.724 | 0.586 | 0.553 |  | 0.636 | 0.563 | 0.563 | 0.477 | 0.712 | 0.692 | 0.677 | 0.538 | 0.658 | 0.215 | 0.152 | 0.172 | 0.141 | 0.13 | 0.67
NCI-H2085 | 0.413 | 0.409 | 0.447 | 0.471 | 0.553 | 0.494 | 0.615 | 0.532 | 0.556 | 0.929 | 0.871 | 0.854 | 0.779 | 0.965 | 0.519 | 0.453 | 0.486 | 0.48 | 0.498 | 0.392
NCI-H2087 | 0.165 | 0.193 | 0.208 | 0.132 | 0.198 | 0.205 | 0.215 | 0.168 | 0.154 | 1.01 | 0.903 | 1.02 | 0.898 | 0.999 | 0.255 | 0.244 | 0.237 | 0.2 | 0.174 | 0.131
NCI-H2126 | 0.967 | 0.944 | 0.917 | 0.881 | 0.571 | 0.512 | 0.574 | 0.526 | 0.531 | 0.715 | 0.668 | 0.701 | 0.661 | 0.733 | 0.575 | 0.561 | 0.538 | 0.545 | 0.559 | 0.839
NCI-H2347 | 0.383 | 0.396 | 0.552 | 0.501 | 0.294 | 0.254 | 0.26 | 0.364 | 0.288 | 0.999 | 0.831 | 0.912 | 0.896 | 0.947 | 0.625 | 0.556 | 0.616 | 0.582 | 0.587 | 0.361
NCI-H2405 | 0.689 | 0.77 | 0.679 | 0.583 | 0.627 |  | 0.64 | 0.578 | 0.745 |  | 0.938 | 1.01 | 0.923 | 0.885 | 0.742 |  | 0.653 | 0.663 | 0.693 | 0.59
NCI-H3122 | 0.107 | 0.141 | 0.0763 | 0.0869 | 0.181 | 0.186 | 0.214 | 0.208 | 0.233 | 1.04 | 1.01 | 0.983 | 1.04 | 1.06 | 0.393 | 0.386 | 0.361 | 0.326 | 0.395 | 0.0872
PC-3 [JPC-3] | 0.746 | 0.655 | 0.729 | 0.753 | 0.596 |  | 0.749 | 0.685 | 0.682 | 0.929 | 0.921 | 0.917 | 0.883 | 0.972 | 0.766 |  | 0.85 | 0.763 | 0.741 | 0.797
PC-14 |  | 0.184 | 0.14 | 0.134 |  | 0.664 | 0.699 | 0.686 | 0.834 | 1.02 | 0.915 | 0.953 | 0.86 | 0.926 | 0.155 | 0.141 | 0.135 | 0.12 | 0.109 | 
RERF-LC-KJ | 1.35 | 1.17 | 1.26 | 1.08 | 0.938 | 0.822 | 0.899 | 0.845 | 0.858 | 0.894 | 0.787 | 0.823 | 0.837 | 0.818 | 0.658 | 0.631 | 0.607 | 0.72 | 0.674 | 1.24
SK-LU-1 | 0.197 | 0.183 | 0.191 | 0.185 | 0.561 | 0.519 | 0.607 | 0.524 | 0.415 | 1.2 | 1.01 | 1.17 | 1.06 | 1.17 | 0.634 | 0.663 | 0.58 | 0.583 | 0.485 | 0.184
SK-MES-1 | 0.833 | 0.609 | 0.795 | 0.504 | 0.531 | 0.54 | 0.525 | 0.53 | 0.627 | 1.05 | 1.03 | 1.06 | 0.913 | 1.09 | 0.364 | 0.293 | 0.341 | 0.324 | 0.337 | 0.795
UMC-11 | 1.13 | 0.98 | 0.904 | 1.01 | 0.7 | 0.759 | 0.707 | 0.682 | 0.635 | 1.06 | 1 | 1.08 | 0.963 | 0.961 | 0.568 | 0.568 | 0.476 | 0.444 | 0.389 | 
